Experimental data from patent US20220112538A1, “SPECTROSCOPIC METHODS, REAGENTS AND SYSTEMS TO DETECT, IDENTIFY, AND CHARACTERIZE BACTERIA FOR ANTIMICROBIAL SUSCEPTIBLITY” (priority 2020, published 2022).
≈ marks a conversion by molar mass, not a printed value. Where two headings read alike, the source gives them in different places.

Legend:
Type in all cases: cell-based
[1] = system: wild type strain of S. aureus; assay: MIC from Rayleigh scattering growth in Cation Adjusted Mueller Hinton Broth, corrected for pathogen concentration; conditions: for MIC: Staphylococcus aureus
Method: FIG. 21A: Variation of Rayleigh scattering with time for 7 samples containing Cation Adjusted Mueller Hinton Broth (CAMHB), an unknown concentration of a test bacteria (which was identified as S. aureus due to pigment production), and loaded onto 96 well plates at 7 concentrations of the candidate antibiotic Vancomycin, with concentrations starting at 1.25 μg/mL (for Cell 7) and decreasing in steps of 2× for each well down to Cell 1. The data is collected for 8 hours. FIG. 21B: Variation of the fitting parameter a, in the fit equation y=a/[1+exp(−(t−b)/c)], with a non-linear best fit routine is applied to fit this equation to the data depicted on the left. The fitting parameter is plotted against cell#. From this variation, it is estimated that Rayleigh growth becomes negligible at an extrapolated cell # of 4.8, which corresponds to a Vancomycin concentration of 0.19 μg/mL.
As we observe experimentally, the antimicrobial susceptibility metric MIC is a function of pathogen concentration, as depicted in FIG. 19. Thus, estimates for MIC obtained from a test sample that is at a pathogen concentration lower than the concentration of 2×10^8 CFU/mL (or 0.5 McFarland) specified in the CLSI M100 standard will need to be corrected for this variation to maximize concordance between a rapid test MIC and the CLSI standard. Empirically, we find that the slope of the traces depicted in FIG. 19 scales with the absolute magnitude of the estimated MIC, as depicted in FIG. 20. Thus, an algorithm to correct the MIC for pathogen concentration is to use the empirical observed scaling relationship depicted in FIG. 20, along with the pathogen concentration estimated from the methods described in FIG. 18. […] Separately, the time to detection is measured as 161 minutes, and this returns an S. aureus concentration of 7.5×10^6 CFU/mL.
We illustrate this process with one example of a wild type strain of S. aureus tested against Vancomycin in Cation Adjusted Mueller Hinton Broth (CAMHB Himedia labs M1657). With CAMHB, the viability of the bacteria is estimated by plotting the Rayleigh scattering factor versus time, and fitting this to an exponential growth function a/[1+exp(−(t−b)/c)], as illustrated in FIG. 21. The growth factor a is then plotted against antibiotic concentration, and from this profile, the concentration at which a approaches zero is estimated as the nominal MIC at the pathogen concentration. Separately, the pathogen concentration is estimated and the MIC is corrected for the pathogen concentration. […] The CLSI M100 breakpoints for Staphylococcus against Vancomycin are >16 μg/mL for resistant and <2 μg/mL for susceptible. Accordingly, this strain of S. aureus is reported as being susceptible to vancomycin, […]

[2] = system: S. aureus (clinical sample); assay: MIC from time required for S. aureus pigment detection versus antibiotic concentration
Method: FIG. 15: Variation of the time required for pigment detection versus antibiotic concentration for tetracycline plotted against antibiotic concentration. The pathogen concentration is estimated at 8.8×10^6 CFU/mL. For antibiotic concentrations of 2 μg/mL, the time to detection is increased by a factor of >2 compared to the baseline value of about 150 minutes for this pathogen concentration. We set this 2× increase as the criterion for MIC˜other criterion can also be used, but will require a different set of corrections for pathogen concentration. With the MIC at the test pathogen concentration, we apply the correction described above, and find that the rapid test MIC correlates with the CLSI M100 MIC, as depicted in FIG. 23.
The second factor that complicates a rapid test for MIC is the presence of multiple pathogens in a polymicrobial sample. For example, a polymicrobial sample that is dominated by Enterococcus but in which the S. aureus is the pathogen of concern, the MIC estimated by examining the growth of Rayleigh scattering can be erroneous because of an incorrect correction for pathogen concentration, and because the Rayleigh scattering is dominated by Enterococcus growth. This issue can be mitigated by one of two ways: (a) by flagging all polymicrobial samples & (b) by focusing the response on a signal associated with the pathogen of interest. For example, using the methods described in Example 5, we detect the S. aureus specific pigments, and characterize the time required for the detection of these pigments as a function of antibiotic concentration. This is illustrated in FIG. 15 for a clinical sample containing […], and the antibiotic tetracycline. From this variation, the MIC is estimated as the minimum antibiotic concentration required to increase the time to detection metric by 2× compared to the time to detection metric observed for the media without any antibiotic (which was 150 minutes in this example). And so, the MIC in this example is log (concentration)=0.3, or a concentration of 2 μg/mL. The concentration of S. aureus estimated from the detection time of 150 minutes (and the methods described in Example 8) is 8.8×10^6 CFU/mL. […] This clinical sample also contained Enterococcus (which was evident after isolating individual colonies on a blood Agar plate), but the method described here focuses the MIC metric on the response of S. aureus.

E. coli 25922 = assay: Minimum inhibitory concentration from phenol red 560 nm absorbance peak height; conditions: 1000 CFU/mL E. coli; extrapolated from a linear fit to phenol red peak height
Description: (§1) This example characterizes the response of E. coli 25922 to Gentamicin. Top: The curves illustrate the response of a test solution that includes 1000 CFU/mL E. coli, the Phenol-Red based reagent described in herein, and Gentamicin GM present at concentrations that are depicted in the legend. The Y axis depicts the height of the phenol red peak at 560 nm, normalized to the starting value.
as §1, with “described” for “described in”, “value. Bottom: The normalized peak height at 300 minutes, plotted as a function of GM concentration.” for “value.”
Antimicrobial susceptibility response was characterized. The metabolic activity of the causative pathogen can be suppressed by an effective antimicrobial. Thus, when a candidate antibiotic, present at a test concentration, is combined with the teachings described herein, then we can deduce the effect of that antibiotic on the microorganism. If we combine a series of antibiotic concentrations, then we can deduce the minimum inhibitory concentration. […]

CN[C@H](CC(C)C)C(=O)N[C@H]1C(=O)N[C@@H](CC(N)=O)C(=O)N[C@H]2C(=O)N[C@H]3C(=O)N[C@H](C(=O)N[C@H](C(=O)O)c4cc(O)cc(O)c4-c4cc3ccc4O)[C@H](O)c3ccc(c(Cl)c3)Oc3cc2cc(c3O[C@@H]2O[C@H](CO)[C@@H](O)[C@H](O)[C@H]2O[C@H]2C[C@](C)(N)[C@H](O)[C@H](C)O2)Oc2ccc(cc2Cl)[C@H]1O [Vancomycin]
MIC estimated at the test pathogen concentration (concentration at which Rayleigh growth becomes negligible) ([1]; CAMHB, 8 hours, extrapolated cell # 4.8, S. aureus 7.5×10^6 CFU/mL): 0.19 µg/mL (≈ 0.131 µM) | MIC ([1]; 8 h, read-out: MIC estimated at the test pathogen concentration (concentration at which Rayleigh growth becomes negligible), CAMHB, 8 hours, extrapolated cell # 4.8, S. aureus 7.5×10^6 CFU/mL): 0.192 µg/mL (≈ 0.132 µM) | MIC ([1]; read-out: CLSI M100 MIC at 0.5 McFarland, estimated by correction for pathogen concentration, corrected from 7.5×10^6 CFU/mL to 0.5 McFarland): 0.867 µg/mL (≈ 0.598 µM) | resistant or susceptible status by comparison with CLSI M100 breakpoints ([1]; breakpoints >16 μg/mL resistant, <2 μg/mL susceptible): susceptible

CN(C)[C@@H]1C(O)=C(C(N)=O)C(=O)[C@@]2(O)C(O)=C3C(=O)c4c(O)cccc4[C@@](C)(O)[C@H]3C[C@@H]12 [tetracycline]
MIC (minimum concentration that increases time to detection by 2×) at the test pathogen concentration ([2]; S. aureus 8.8×10^6 CFU/mL): 2 µg/mL (≈ 4.5 µM) | MIC as log (concentration) ([2]; S. aureus 8.8×10^6 CFU/mL): 0.3 | MIC ([2]; Staphylococcus aureus, corrected from 8.8×10^6 CFU/mL, read-out: MIC at 0.5 McFarland, estimated by correction for pathogen concentration): 2.51 µg/mL (≈ 5.65 µM) | increase of time to pigment detection compared to baseline (factor) ([2]; antibiotic 2 μg/mL, baseline about 150 minutes, pathogen 8.8×10^6 CFU/mL): > 2

Gentamicin
GM concentration at which the 560 nm peak height does not decrease from the starting value (minimum inhibitory concentration) (E. coli 25922): 2.03 µg/mL
